Experimental data reported in US9376425B2, “Heterocyclic compounds as MDM2 inhibitors for the treatment of cancer” (AMGEN INC., priority 2011, dated 2016).

Target: T1, human MDM2 (GST-hMDM2 1-188), interaction with biotinylated-p53 (1-83) (Homo sapiens, UniProt Q00987)
T1 construct: Amino acid residues 1-188 of human MDM2 were expressed; made in house; host or cells: Escherichia coli
Assay: improved HTRF assay (HTRF2 assay), inhibition of HDM2-p53 interaction
Type: binding
Conditions: 0.2 nM GST-hMDM2, 0.5 nM biotinylated-p53, 100 mM KF
Summary of the method: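 GST-hMDM2 preincubated 20 min at RT with serially diluted compound, then biotinylated p53 (1-83, E. coli) added for 60 min. Detection with SA-XLent, anti-GST cryptate and KF, equilibrated >4 h; final DMSO 2%. TR-FRET read; % inhibition calculated relative to nutlin-3.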

T1 sequence (Q00987 1-188): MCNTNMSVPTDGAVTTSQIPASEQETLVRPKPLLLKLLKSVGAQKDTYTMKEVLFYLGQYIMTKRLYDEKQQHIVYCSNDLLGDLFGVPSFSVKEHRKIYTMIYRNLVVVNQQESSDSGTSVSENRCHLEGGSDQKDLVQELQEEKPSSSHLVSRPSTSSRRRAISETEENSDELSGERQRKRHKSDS

| Structure (SMILES) | IC50 |
| --- | --- |
| O=C1[C@@H](Cc2nnn[nH]2)O[C@H](c2cccc(Cl)c2)[C@@H](c2ccc(Cl)cc2)N1[C@H](CN(c1ccccc1F)S(=O)(=O)C1CC1)C1CC1 (single isomer, unassigned) [Example 398, N-((S)-2-((2R,5R,6R)-2-((1H-Tetrazol-5-yl)methyl)-6-(3-chlorophenyl)-5-(4-chlorophenyl)-3-oxomorpholino)-2-cyclopropylethyl)-N-(2-fluorophenyl)cyclopropanesulfonamide or N-((S)-2-((2S,5R,6R)-2-((1H-tetrazol-5-yl)methyl)-6-(3-chlorophenyl)-5-(4-chlorophenyl)-3-oxomorpholino)-2-cyclopropylethyl)-N-(2-fluorophenyl)cyclopropanesulfonamide] | < 1 nM |
| O=C1[C@@H](Cc2nnn[nH]2)O[C@H](c2cccc(Cl)c2)[C@@H](c2ccc(Cl)cc2)N1[C@H](CN(c1ccccc1F)S(=O)(=O)C1CC1)C1CC1 (single isomer, unassigned) [Example 399, N-((S)-2-((2R,5R,6R)-2-((1H-Tetrazol-5-yl)methyl)-6-(3-chlorophenyl)-5-(4-chlorophenyl)-3-oxomorpholino)-2-cyclopropylethyl)-N-(2-fluorophenyl)cyclopropanesulfonamide or N-((S)-2-((2S,5R,6R)-2-((1H-tetrazol-5-yl)methyl)-6-(3-chlorophenyl)-5-(4-chlorophenyl)-3-oxomorpholino)-2-cyclopropylethyl)-N-(2-fluorophenyl)cyclopropanesulfonamide] | < 1 nM |
| CC[C@@H](CS(=O)(=O)C(C)(C)C)N1C(=O)[C@@H](Cc2nnnn2C)O[C@H](c2cccc(Cl)c2)[C@H]1c1ccc(Cl)cc1 (single isomer, unassigned) [Example 400, (2R,5R,6R)-4-((S)-1-(tert-Butylsulfonyl)butan-2-yl)-6-(3-chlorophenyl)-5-(4-chlorophenyl)-2-((1-methyl-1H-tetrazol-5-yl)methyl)morpholin-3-one or (2R,5R,6R)-4-((S)-1-(tert-butylsulfonyl)butan-2-yl)-6-(3-chlorophenyl)-5-(4-chlorophenyl)-2-((2-methyl-2H-tetrazol-5-yl)methyl)morpholin-3-one] | 37 nM |
| CC[C@@H](CS(=O)(=O)C(C)(C)C)N1C(=O)[C@@H](Cc2nnnn2C)O[C@H](c2cccc(Cl)c2)[C@H]1c1ccc(Cl)cc1 (single isomer, unassigned) [Example 401, (2R,5R,6R)-4-((S)-1-(tert-Butylsulfonyl)butan-2-yl)-6-(3-chlorophenyl)-5-(4-chlorophenyl)-2-((1-methyl-1H-tetrazol-5-yl)methyl)morpholin-3-one or (2R,5R,6R)-4-((S)-1-(tert-butylsulfonyl)butan-2-yl)-6-(3-chlorophenyl)-5-(4-chlorophenyl)-2-((2-methyl-2H-tetrazol-5-yl)methyl)morpholin-3-one] | 38 nM |
| Cc1nnc(C[C@H]2O[C@H](c3cccc(Cl)c3)[C@@H](c3ccc(Cl)cc3)N([C@H](CN(c3ccccc3F)S(=O)(=O)C3CC3)C3CC3)C2=O)o1 (single isomer, unassigned) [Example 403, N-((S)-2-((2R,3R,6R)-2-(3-Chlorophenyl)-3-(4-chlorophenyl)-6-((5-methyl-1,3,4-oxadiazol-2-yl)methyl)-5-oxomorpholino)-2-cyclopropylethyl)-N-(2-fluorophenyl)cyclopropanesulfonamide or N-((S)-2-((2S,3R,6R)-2-(3-chlorophenyl)-3-(4-chlorophenyl)-6-((5-methyl-1,3,4-oxadiazol-2-yl)methyl)-5-oxomorpholino)-2-cyclopropylethyl)-N-(2-fluorophenyl)cyclopropanesulfonamide] | 2 nM |
